How the values were obtained:
γ-H2AX = experiment: Immunofluorescence staining for DNA damage marker γ-H2AX; assay type: cell-based, human; settings: U87-MG, 2 μM, 24 h
Description: (§1) U87-MG cells were plated at a concentration of 50,000 cells/well onto precoated poly-D-lysine (PDL) coverslips (Neuvitro) in 24-well plates (Falcon) and allowed to adhere overnight. Medium was removed and replaced with treatment-laced media normalized to DMSO, and cells were treated for the indicated timepoints. At the time of collection, cells were washed with PBS and fixed with 4% paraformaldehyde without methanol (EMS) or 100% methanol (Fischer). Coverslips were washed with Tween20-containing PBS (PBST; Fischer). Following permeabilization with 0.5% Triton X-100 in PBS (Fischer), coverslips were blocked for 1 h at room temperature in IF Buffer (0.05% azide, 0.2% Triton X-100, 2% Normal Goat Serum or, for 8-OHG, Normal Donkey Serum). The following primary antibodies were used for 1 hour at room temperature unless specified: AlexaFluor 488 pre-conjugated anti-γ-H2AX (N1-431) mouse monoclonal (30 minutes; BD Biosciences), anti-cleaved caspase 3 (Asp175) rabbit polyclonal (Cell Signaling), anti-SQSTM1/p62 (D-3) mouse monoclonal (Santa Cruz), anti-8-Hydroxyguanosine goat polyclonal (1:200; Millipore), anti-LAMP1 (D4O1S) mouse monoclonal (O/N at 4° C.; Cell Signaling), anti-BNIP3L/Nix (D4R4B) rabbit monoclonal (O/N at 4° C.; Cell Signaling), anti-FLAG (M2) mouse monoclonal (2 hours at 37° C.; Sigma-Aldrich). […]

mitochondria = experiment: MitoTracker Red CMXRos staining of the mitochondrial network; assay type: cell-based, human; settings: U87-MG, 24 h; 2 μM Y102, 50 μM HCQ
Description: For MitoTracker Red CMXRos staining, 30 minutes prior to collection medium was removed and replaced with medium containing MitoTracker Red CMXRos at a final concentration of 100 nM (Molecular Probes). Following staining, cells were washed with PBS and fixed with 4% paraformaldehyde without methanol. Cells were washed with PBST, then permeabilized with 0.5% Triton X-100 in PBS. When co-staining with another marker, the staining procedure continued with the blocking step; otherwise, cells were stained with 0.33 μg/mL DAPI in PBS and mounted onto slides in ProLong Gold (Life Technologies).

proteasomal active sites = target: T1, proteasomal active sites (Homo sapiens, UniProt P28072+P28074+Q99436); experiment: MV-151 proteasome active site inhibition assay; assay type: cell-based; settings: U87-MG; Y102 2 μM 24 h; positive control 1 μM Bortezomib and 10 μM MG-132 2 h
T1 construct: endogenous in cells; host or cells: U87-MG
Description: U87-MG cells were plated at 500,000 cells/well in 6-well plates and allowed to adhere overnight (Falcon). Medium was removed and replaced with fresh medium containing Y102 or vehicle DMSO and treated for 24 h. As a positive control, one well was treated for 2 h with 1 μM Bz/10 μM MG-132.
Cells were collected after treatment by washing with PBS, harvested with trypsin plus agitation to detach cells, spun down in a centrifuge, and resuspended in PBS to wash. Cells were transferred to 1.5 mL microcentrifuge tubes, pelleted, and resuspended in 20 μL digitonin lysis buffer (50 mM Tris HCl pH 7.5, 250 mM sucrose, 2 mM EDTA, 1 mM ATP, 1 mM DTT, and 0.05% digitonin). Cells were mixed by pipetting, incubated on ice for 20 minutes, and the lysate was cleared by centrifugation. Protein concentrations were determined using a Bradford protein assay (Bio-Rad). 10 μg of protein lysate was incubated for 20 minutes with 20 μM MV-151 in a 37° C. water bath. 4× loading dye was added to the samples and proteins were separated by sodium dodecyl sulfate-polyacrylamide gel electrophoresis (SDS-PAGE) on a 4-15% polyacrylamide gradient gel (Bio-Rad). Gel was imaged on a Typhoon scanner at an excitation of 532 nm and an emission of 560 nm to detect MV-151 fluorescence. Following imaging, proteins were transferred to nitrocellulose. The blot was probed for α-Tubulin as a loading control. […]

lysosomes = experiment: Immunofluorescence staining of lysosomes (LAMP1) and mitochondria (Tom20); assay type: cell-based, human; settings: U87-MG, 2 μM, 16 h
Description: as §1, with “Sigma-Aldrich). Following washes with PBST, cells were stained with goat anti-rabbit or goat anti-mouse AlexaFluor 488 or AlexaFluor 594 (or, for 8-OHG, donkey anti-goat AlexaFluor 488) secondary antibody at 1:800 for 1 hour at room temperature (Jackson ImmunoResearch).” for “Sigma-Aldrich).”
All confocal images were acquired on a Nikon AIRSi confocal microscope equipped with a 60× 1.4 NA oil objective, a DU4 detector unit, and Nikon Elements software. Otherwise, images were acquired on a Zeiss Axio Imager.Z1 equipped with a Zeiss EC Plan-NEOFLUAR 40× 1.3 NA oil objective, a Zeiss AxioCam MRm camera, a Lumen Dynamics Series 120 Q X-Cite Fluorescence Illuminator, and AxioVision SE64 Rel. […]

BNIP3L/Nix = experiment: Immunofluorescence staining for mitophagy receptor BNIP3L/Nix; assay type: cell-based, human; settings: U87-MG, 24 h; 2 μM Y102, 100 μM CoCl2; CoCl2 and Y102 compared with each other
Description: as §1

With Cn1cnnc1S/C=C/C(=O)c1ccc(F)cc1 [Y102] the “change in γ-H2AX expression” value (γ-H2AX) was “no significant change”, the “mitochondrial phenotype (perinuclear clustering)” value (mitochondria) was “perinuclear clustering of the mitochondria” and the “inhibition of the proteasomal subunits (MV-151 competitive binding)” value (proteasomal active sites) was “not”. For the same molecule, the localization of lysosomes (lysosomes; LAMP1) was “perinuclear region”, the lysosome expression (lysosomes; LAMP1) was “increase” and the “colocalization between lysosomes and mitochondria” value (lysosomes; LAMP1/Tom20, ratiometric analysis, confocal) was “observed”. The “expression/localization of BNIP3L/Nix on the mitochondria compared to DMSO control” value (BNIP3L/Nix) was “increase”.

Source: patent US20220326218A1, “COMPOSITION AND METHOD FOR INHIBITING BORC COMPLEX TO TREAT CANCERS WITH NF1 DEFICIENCY AND DYSREGULATED RAS SIGNALING” (THE TRUSTEES OF DARTMOUTH COLLEGE, priority 2019, published 2022)
